The test system of experiment [1] is platelets. The experiment is described as follows: Effect of inhibitors on anti-GPIIIa49-66 Ab-induced platelet particle formation / oxidative fragmentation. The class given is cell-based, human. Also on record: effect on Ab-induced platelet particle formation: unit of the concentration uncertain. The procedure:
Induction of Platelet Particles. […] 1×10^7 gel-filtered platelets/ml were labelled with an anti-GPIIb-FITC monoclonal Ab (MoAb) (3B2) or an anti-GPIIIa-FITC MoAb (Ancell, Bayport, Minn.), 10 ug/ml for 30 min at 4° C., centrifuged at 1000 g×6 min at room temperature, and resuspended in Tyrodes buffer. […] (see below).
Debris and dead cells were excluded using scatter gates. Only cells with low orthogonal light scattering were included in the sorting gates. Gates were adjusted for control platelets by exclusion of other blood cells. Intact platelets were monitored in the right upper quadrant (RUQ) with the Y-axis measuring forward-scatter and the X-axis measuring fluorescence. A shift in the fluorescent particles from RUQ to LUQ reflected % platelet particle induction of 10,000 counted platelets/particles.
However, a recent report by Lerner and coworkers [19]provided evidence that Ab's in general are capable of inducing peroxide formation from an assortment of Ag's depending upon the tryptophan and cysteine composition and orientation. […] This hypothesis was tested with the use of diphenyleneiodonium (DPI), an inhibitor of NADH/NADPH oxidase, as well as other flavoprotein oxidases.

Experiment [2] concerns platelets. The experiment is described as follows: Platelet oxidation/fragmentation induced independently of anti-GPIIIa49-66 (DCHF-loaded platelets). The class given is cell-based.
Experiment [3] has as its system p47phox(−/−), gp91phox(−/−)KO, 12-LO(−/−)KO mouse platelets. The experiment is described as follows: Platelet oxidation in NADPH oxidase and 12-LO KO mouse platelets. Format: cell-based. The conditions noted are these: gp91phox(−/−)KO and 12-LO(−/−)KO mouse platelets. Here is the method:
It has also been discovered that platelet oxidation/fragmentation can be induced independently of anti-GPIIIa49-66 by […] A23187, a Ca^++ ionophore, or 0.4 μM PMA, a protein kinase C activator. […] Their reactivity is inhibited by the oxidation scavengers catalase (H2O2) and DPI (diphenylene iodonium, an inhibitor of NADPH-oxidase), and is absent in NADPH oxidase p47phox(−/−), gp91phox(−/−)KO as well as 12-LO(−/−)KO mouse platelets. Thus, anti-GPIIIa49-66 could be inducing the intracellular effects of ionophore and PMA.

Experiment [4] deals with platelets. The experiment is described as follows: Inhibition of HUVEC ADAMTS-18 induced platelet oxidation fragmentation. Format: cell-based. The conditions noted are these: single agent, n=7. The source says:
Recombinant ADAMTS-18 was then made with the expression vector pBudCE4.1 in 293T cells. This peptide induced platelet 12(S)—HETE and oxidation/fragmentation in an identical kinetic fashion as anti-GPIIIa49-66 antibody. Both expressed rADAMTS-18, and HUVEC conditioned media ADAMTS-18 could be activated by thrombin (0.5μ/mL and then neutralized with hirudin), with optimum effect at one hour (n=4). HUVEC ADAMTS-18 induced oxidation fragmentation could be inhibited about 50% by an scFV antibody raised against the ADAMTS-18 (18-mer) peptide as well as GPIIIa49-66 peptide, as well as RGDS (GPIIIa ligand binding site) (n=7).

In experiment [5] the test system is platelets. Description: Ca++ flux (fura-2, AM) in activation of oxidative platelet death.
In experiment [6] the test system is mice. The conditions noted are these: earlier reports [10], [14]; cited from earlier work.
[7] abbreviates: 4 Hrs, doubling concentrations from 50 uM/ml catalase and 5 uM/ml DPI, no UV/light irradiation.
[8] abbreviates: inhibitor at 2 (unit uncertain).

Entries after “also recorded” stand apart in the source; their conditions may differ. Where two headings read alike, the source gives them in different places. *: point of attachment. Biotin = O=C1N[C@H]2[C@H](CS[C@H]2CCCCC(=O)*)N1

This is an account of results in patent US20070009529A1, “Agents that dissolve arterial thrombi” (New York University, priority 2002, published 2007).

Take `COC(=O)CC(NC(=O)OC(C)(C)C)C(=O)CF` (stereo not drawn) [FK-011]: the “effect on Ab-induced platelet particle formation” value in experiment [1] (inhibitor at 100 uM) is “unsuccessful”. In the case of `CC(=O)N[C@@H](CC(C)C)C(=O)N[C@@H](CC(C)C)C(=O)N[C@H](C=O)CCCNC(=N)N` [leupeptin], the “effect on Ab-induced platelet particle formation” value in experiment [1] (inhibitor at 5 ug/ml) is “unsuccessful”.

Turning to `CCCCCCCCCCCCCC(=O)O[C@@H]1[C@@H](C)[C@@]2(O)[C@@H](C=C(CO)C[C@]3(O)C(=O)C(C)=C[C@@H]23)[C@@H]2C(C)(C)[C@]12OC(C)=O` [PMA, phorbol 12-myristate 13-acetate], in experiment [2], the “oxidation of platelets loaded with the oxidative fluorochrome DCHF” value was “induce oxidation”. The “induction of platelet oxidation/fragmentation” value in experiment [2] (0.4 μM) was “induced”. Besides, the “reactivity (platelet oxidation) in KO mouse platelets” value in experiment [3] is “absent”. For `CCCCC[C@H](O)/C=C/[C@H]1[C@H](O)CC(=O)[C@@H]1CCCCCCC(=O)O` [PGE1], in experiment [1] (agent at 1 μM, n=6), the “oxidative fragmentation/death in the presence of the agent” value was “not induced”.

Consider `CC[C@]1(O)C[C@@H]2CN(CCc3c([nH]c4ccccc34)[C@@](C(=O)OC)(c3cc4c(cc3OC)N(C)[C@H]3[C@@](O)(C(=O)OC)[C@H](OC(C)=O)[C@]5(CC)C=CCN6CC[C@]43[C@@H]65)C2)C1` [vinblastine], for which, in experiment [1] (inhibitor at 0.2 (unit uncertain)), the “effect on Ab-induced platelet particle formation” value is “unsuccessful”. Turning to RGDS, the “inhibition of HUVEC ADAMTS-18 induced oxidation fragmentation” value in experiment [4] is reported as “about 50%”.

With “bio-VQTRSVHCVQQGRPSSSC—OH (Biotin-VQTRSVHCVQQGRPSSSC-OH; cysteine pairing not given here) [18-mer peptide from the C-terminal TSP motif of ADAMTS-18, conjugated to biotin]”, the platelet oxidation/fragmentation result in experiment [2] (peptide alone) was “no effect”; in experiment [2] (peptide clustered with an anti-biotin antibody, n=6), “did induce oxidation/fragmentation”.

As for catalase, the “effect on Ab-induced platelet particle formation” value in experiment [1] (setting [7]) is “could inhibit the reaction; also recorded: inhibited”. For the same molecule, the “effect of oxidation scavenger on reactivity of A23187 and PMA” value in experiment [2] was “inhibited”. In the case of `O=C(O)CN(CCOCCOCCN(CC(=O)O)CC(=O)O)CC(=O)O` [EGTA, ethylenebis(oxyethylenenitrilo)tetraacetic acid], in experiment [5] (100 μM), the “inhibition of Ca++ flux” value was “completely inhibited”.

`O=C(O)CN(CC(=O)O)c1ccccc1OCCOc1ccccc1N(CC(=O)O)CC(=O)O` [BAPTA]: the “inhibition of Ca++ flux” value in experiment [5] (10 microM) is “completely inhibited”. For the molecule `c1ccc2c(c1)[I+]c1ccccc1-2` [DPI, diphenyleneiodonium], the “effect on Ab-induced platelet particle formation” value in experiment [1] (setting [7]) is on record as “inhibition; also recorded: inhibited”. Also, the “effect of oxidation scavenger on reactivity of A23187 and PMA” value in experiment [2] was “inhibited”. For the molecule `[N-]=[N+]=[N-].[Na+]` [NaAz], the “effect on Ab-induced platelet particle formation” value in experiment [1] was “unsuccessful”.

Consider `O=CC[C@@H](O)[C@H](O)[C@H](O)CO` [2-deoxyglucose], for which the “effect on Ab-induced platelet particle formation” value in experiment [1] (inhibitor at 3 (unit uncertain)) is on record as “unsuccessful”. As to `O=S(=O)(F)Cc1ccccc1` [PMSF], the “effect on Ab-induced platelet particle formation” value in experiment [1] (setting [8]) is “unsuccessful”. `Oc1ncnc2[nH]ncc12` [allopurinol]: the “effect on Ab-induced platelet particle formation” value in experiment [1] (inhibitor at 200 uM) is “failed to inhibit”. Consider calpastatin, for which, in experiment [1] (inhibitor at 100 uM), the “effect on Ab-induced platelet particle formation” value is reported as “unsuccessful”. Regarding `C=C1[C@@H](C)[C@H]2[C@H](Cc3ccccc3)NC(=O)[C@]23[C@H](OC(C)=O)/C=C/[C@@](C)(O)C(=O)[C@@H](C)C/C=C/[C@H]3[C@@H]1O` [cytochalasin D], in experiment [1] (inhibitor at 10 uM), the “effect on Ab-induced platelet particle formation” value is “unsuccessful”. Turning to `COc1ccc2c(c1)c(CC(=O)O)c(C)n2C(=O)c1ccc(Cl)cc1` [indomethacin], the “effect on Ab-induced platelet particle formation” value in experiment [1] (inhibitor at 20 uM) is recorded as “failed to inhibit”. In the case of `CN[C@@H]1C[C@H]2O[C@@](C)([C@@H]1OC)n1c3ccccc3c3c4c(c5c6ccccc6n2c5c31)C(=O)NC4` [staurosporine], the “effect on Ab-induced platelet particle formation” value in experiment [1] (inhibitor at 200 uM) is recorded as “unsuccessful”. For the molecule `CNc1ccc2oc(C[C@H]3O[C@@]4(CC[C@H]3C)O[C@H]([C@H](C)C(=O)c3ccc[nH]3)[C@H](C)C[C@H]4C)nc2c1C(=O)O` [A23187, calcimycin], in experiment [2], the “induction of platelet oxidation/fragmentation” value is listed as “induced” and the “oxidation of platelets loaded with the oxidative fluorochrome DCHF” value is given as “induce oxidation”. Besides, the “reactivity (platelet oxidation) in KO mouse platelets” value in experiment [3] is given as “absent”. In the case of `COc1cc2c(c(OC)c1OC)-c1ccc(OC)c(=O)cc1[C@@H](NC(C)=O)CC2` [Colchicine], in experiment [1] (setting [8]), the “effect on Ab-induced platelet particle formation” value is given as “unsuccessful”. Consider `CC1CNCCN1S(=O)(=O)c1cccc2cnccc12` (stereo not drawn) [H-7], for which the “effect on Ab-induced platelet particle formation” value in experiment [1] (inhibitor at 40 uM) is recorded as “unsuccessful”. Take superoxide dismutase: the “effect on Ab-induced platelet particle formation” value in experiment [1] (setting [7]) is “inhibited”.

On to “CAPESIEFPVSEARVLED [GPIIIa49-66 peptide]”, for which, in experiment [4], the “inhibition of HUVEC ADAMTS-18 induced oxidation fragmentation” value is “about 50%”. The “prevention or reversal of murine thrombocytopenia induced by anti-GPIIIa49-66 Ab” value in experiment [6] was “prevented or reversed”.

B1: HUVEC conditioned media ADAMTS-18: ADAMTS-18 in HUVEC conditioned media (protein, UniProt Q8TE60 285-1221, looked up)
A disintegrin and …: SAGKSQKGLNVETLVVADKKMVEKHGKGNVTTYILTVMNMVSGLFKDGTIGSDINVVVVSLILLEQEPGGLLINHHADQSLNSFCQWQSALIGKNGKRHDHAILLTGFDICSWKNEPCDTLGFAPISGMCSKYRSCTINEDTGLGLAFTIAHESGHNFGMIHDGEGNPCRKAEGNIMSPTLTGNNGVFSWSSCSRQYLKKFLSTPQAGCLVDEPKQAGQYKYPDKLPGQIYDADTQCKWQFGAKAKLCSLGFVKDICKSLWCHRVGHRCETKFMPAAEGTVCGLSMWCRQGQCVKFGELGPRPIHGQWSAWSKWSECSRTCGGGVKFQERHCNNPKPQYGGLFCPGSSRIYQLCNINPCNENSLDFRAQQCAEYNSKPFRGWFYQWKPYTKVEEEDRCKLYCKAENFEFFFAMSGKVKDGTPCSPNKNDVCIDGVCELVGCDHELGSKAVSDACGVCKGDNSTCKFYKGLYLNQHKANEYYPVVLIPAGARSIEIQELQVSSSYLAVRSLSQKYYLTGGWSIDWPGEFPFAGTTFEYQRSFNRPERLYAPGPTNETLVFEILMQGKNPGIAWKYALPKVMNGTPPATKRPAYTWSIVQSECSVSCGGGYINVKAICLRDQNTQVNSSFCSAKTKPVTEPKICNAFSCPAYWMPGEWSTCSKACAGGQQSRKIQCVQKKPFQKEEAVLHSLCPVSTPTQVQACNSHACPPQWSLGPWSQCSKTCGRGVRKRELLCKGSAAETLPESQCTSLPRPELQEGCVLGRCPKNSRLQWVASSWSECSATCGLGVRKREMKCSEKGFQGKLITFPERRCRNIKKPNLDLEETCNRRACPAHPVYNMVAGWYSLPWQQCTVTCGGGVQTRSVHCVQQGRPSSSCLLHQKPPVLRACNTNFCPAPEKREDPSCVDFFNWCHLVPQHGVCNHKFYGKQCCKSCTRKI
modifications: natural, HUVEC conditioned media
notes: ADAMTS-18 in HUVEC conditioned media
For the molecule B1, the “time of optimum effect of activation by thrombin” value in experiment [2] (thrombin 0.5μ/mL, then neutralized with hirudin, n=4) was “one”.
